Legend:
[1] = system: liver cancer cells Huh7; assay: Inhibition of fluorescently labeled DNA uptake by liver cancer cells; type: cell-based; conditions: then labeled DNA for 8 hours
Experimental: 1.8 KB of AFP (alpha feto protein) DNA is obtained through PCR (polymerase chain reaction), extracted with phenol-chloroform and adjusted to a concentration of 1 μg/mL. 5 μg of DNA is taken, and Rhodamine (fluorescent marker) is added. The mixture is allowed to stand at 37° C. for 1 hour, and purified in a G-50 Sephadex (purification column).
1640 medium is taken, and FBS (fetal bovine serum) is added, wherein the mass of FBS (fetal bovine serum) is 10% of that of 1640 medium. Put the mixture aside.
Eight groups of liver cancer cells Huh7 are inoculated into a 1640 medium respectively containing 10% FBS (fetal bovine serum) and cultured at 37° C. for 12 hours in an incubator containing 5% CO2.
Cells obtained through culture are rinsed 3 times with PBS and fixed with 4% formalin. The cells fixed as described above are photographed with a fluorescence microscope. […] The concentration of T3 is: 0 ng/mL, 1 ng/mL, 50 ng/mL and 100 ng/mL respectively.

[2] = system: LLC lung cancer cell strains; assay: Inhibition of the growth of mouse lung cancer tumors; type: in vivo, CK57BL mice; conditions: for Inhibition rate on the seventh day: 480 mg/kg intraperitoneally once a day for 7 days, vs normal saline group, hydrochloride
Experimental: Preparation of tumor cell suspension: LLC lung cancer cell strains are inoculated into a DMEM medium containing 10% FBS (fetal bovine serum), and cultured at 37° C. for 12 h in an incubator containing 5% CO2. When the cells grow to the logarithmic phase, the above medium is prepared into a cell suspension, and the concentration is 1×10^6 cells/mL to obtain the lung cancer cell suspension for later use.
Building of animal tumor model: 20 SPF grade CK57BL mice, male and (20±2) g, are taken. The above mice are kept in a laboratory without particular pathogens. The right armpit skin of the mice is disinfected with alcohol, and 0.2 mL of the above tumor cell suspension is drawn with a 1 mL syringe, and inoculated into the disinfected part of the mice by slow hypodermic injection. All mice are given sufficient water and feed, the litter is kept dry and the tumor growth of the mice is observed. Generally, about 10 days after modeling, obvious tumor nodules can be felt under the armpits of the mice, which means that the modeling was successful.

[3] = system: liver cancer cells Huh7; assay: Inhibition of liver cancer cell proliferation (CellTiter 96 AQueous One Solution); type: cell-based; conditions: 72 hours, 490 nm absorbance
Experimental: (§1) Liver cells LO2 and liver cancer cells Huh7 are inoculated into a 1640 medium containing 10% FBS (fetal bovine serum) respectively, and cultured at 37° C. for 12 hours in an incubator containing 5% CO2. […] The CellTiter 96® AQueous One Solution kit is used to determine the cells. 20 μL of analytical reagents are added and readings are taken at 490 nm absorbance.

[4] = system: H22 mouse liver cancer cells; assay: Inhibition of the growth of mouse liver cancer tumors; type: in vivo, Kunming mice; conditions: for Inhibition rate (ninth day): vs normal saline group, hydrochloride; for tumor volume, Ninth day / tumor volume, Sixth day / tumor volume, Third day: H22 tumors in Kunming mice
Experimental: Preparation of tumor cell suspension: H22 mouse liver cancer cells are inoculated into a 1640 medium containing 10% FBS (fetal bovine serum), and cultured at 37° C. for 12 h in an incubator containing 5% CO2. When the cells grow to the logarithmic phase, the above medium is prepared into a cell suspension, and the concentration of H22 mouse liver cancer cells is controlled to 1×10^6 cells/mL to obtain the tumor cell suspension for later use.
Building of animal tumor model: 30 SPF grade Kunming mice, male and (20±2) g, are taken. […] The right armpit skin of mice in each group is disinfected with alcohol, and 0.2 mL of the above tumor cell suspension is drawn with a 1 mL syringe, and inoculated into the disinfected part of the mice by slow hypodermic injection. All mice are given sufficient water and feed, the litter is kept dry and the tumor growth of the mice is observed. Generally, 7 days after modeling, obvious tumor nodules can be felt under the armpits of the mice, which means that the modeling was successful.

[5] = system: liver cells LO2; assay: Proliferation of liver cells (CellTiter 96 AQueous One Solution); type: cell-based; conditions: 72 hours, 490 nm absorbance
Experimental: as §1

[6] = 480 mg/kg intraperitoneally once a day, LLC tumors in CK57BL mice
[7] = high-dose, 480 mg/kg intraperitoneally twice a day
[8] = low-dose, 240 mg/kg intraperitoneally twice a day

Row | Molecule | uptake of fluorescently labeled DNA by liver cancer cells ([1]; control groups with 0, 1, 50, 100 ng/mL T3 for 24 hours) | uptake of fluorescently labeled DNA by liver cancer cells ([1]; 0, 1, 25, 50 mmol/L guanidine hydrochloride for 24 hours, fluorescence microscope) | Inhibition rate on the seventh day [2] [%] | Inhibition rate on the seventh day ([2]; listed as Guanidine hydrochloride) [%] | tumor volume, First day [2, 6] [cm^3] | tumor volume, Seventh day [2, 6] [cm^3] | tumor volume, Third day [2, 6] [cm^3] | growth of cancer cells Huh7 ([3]; 6 mmol/L) | growth of cancer cells Huh7 ([3]; 20 mmol/L) | Inhibition rate (ninth day) ([4]; high-dose, 480 mg/kg intraperitoneally twice a day for 9 days, 480 mg/kg) [%] | tumor volume, Ninth day [4, 7] [cm^3] | tumor volume, Sixth day [4, 7] [cm^3] | tumor volume, Third day [4, 7] [cm^3] | Inhibition rate (ninth day) ([4]; low-dose, 240 mg/kg intraperitoneally twice a day for 9 days, 240 mg/kg) [%] | tumor volume, Ninth day [4, 8] [cm^3] | tumor volume, Sixth day [4, 8] [cm^3] | tumor volume, Third day [4, 8] [cm^3] | growth of liver cells LO2 ([5]; 6 mmol/L) | growth of liver cells LO2 ([5]; 20 mmol/L)
1 | N[C@@H](Cc1cc(I)c(Oc2ccc(O)c(I)c2)c(I)c1)C(=O)O [triiodothyronine] | do not affect the uptake | – | – | – | – | – | – | – | – | – | – | – | – | – | – | – | – | – | –
2 | guanidine hydrochloride | – | significantly inhibit the uptake of DNA | 56.8 | 56.8 | 0.43 | 1.8 | 0.92 | begins to significantly inhibit | significantly inhibited | 42 | 2.37 | 1.47 | 0.54 | 24 | 3.11 | 2.16 | 0.55 | does not affect the growth | significantly inhibited
